Measured values taken from PubChem BioAssay (NCI).
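The compound was tested at five concentrations on cells cultured in 96-well plates, with a 48-hour exposure period. GI50 is the concentration that inhibits growth by half. The concentration for full growth arrest is given as TGI.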

Key:
Experiment in all cases: DTP human tumour cell line panel, 48 h
[1] = system: OVCAR-3 ovarian
[2] = system: SK-MEL-28 melanoma
[3] = system: MCF7 breast
[4] = system: RXF 393 renal
[5] = system: SN12C renal
[6] = system: HCT-15 colon
[7] = system: SK-MEL-5 melanoma
[8] = system: A549 NSCLC

| SMILES | GI50 [1] | TGI [1] | GI50 [2] | TGI [2] | GI50 [3] | TGI [3] | GI50 [4] | TGI [4] | GI50 [5] | TGI [5] | GI50 [6] | TGI [6] | GI50 [7] | TGI [7] | GI50 [8] | TGI [8] |
| --- | --- | --- | --- | --- | --- | --- | --- | --- | --- | --- | --- | --- | --- | --- | --- | --- |
| Cc1c2ccncc2c(C)c2c1c1cc(CO)ccc1n2C | 0.498 µM | 2.32 µM | 1.82 µM | 6.5 µM | 0.282 µM | 10.4 µM | 0.41 µM | 1.7 µM | 0.442 µM | 5.35 µM | 0.354 µM | 10 µM | 1.08 µM | 2.7 µM | 0.416 µM | 2.81 µM |
| CCN(CC)C(=O)COc1cc2c(O)c3c(O)c(C)c4c(c13)C(=O)C(C)(OC=CC(OC)C(C)C(OC(C)=O)C(C)C(O)C(C)C(O)C(C)C=CC=C(C)C(=O)N2)O4 (stereo not given) |  | > 100 µM |  | > 100 µM |  | > 100 µM |  | > 100 µM |  | > 100 µM |  | > 100 µM |  | > 100 µM |  | > 100 µM |
| C=CCCCOC1[C@H](OCc2ccccc2)C(OCc2ccccc2)C(OC)O[C@@H]1CNC(=O)c1cccc(I)c1 (stereo not given in full) | 6.46 µM | > 100 µM | 8.51 µM | > 100 µM | 3.5 µM | > 100 µM | 3.91 µM | > 100 µM | 8.53 µM | > 100 µM | 3.55 µM | > 100 µM | 2.2 µM | 16.2 µM | 8.17 µM | > 100 µM |
| O=c1c(-c2ccccc2)coc2cc(OC/C(=N/O)c3ccc(F)cc3)ccc12 | 19.7 µM | 47.4 µM | 19.2 µM | > 100 µM | 25.9 µM | > 100 µM | 17.7 µM | 37.5 µM | 16.2 µM | 34.2 µM | 21.3 µM | 50.3 µM | 11.6 µM | 23.9 µM | 13.6 µM | 35.9 µM |
| OCc1ccc(N2CCCC2)cc1Cl | 2.18 µM | 7.25 µM | > 100 µM | > 100 µM | 1.95 µM | > 61.9 µM | 9.57 µM | 27.1 µM | 47.6 µM | > 100 µM | 31 µM | > 100 µM | 18.7 µM | > 75.5 µM | 23.2 µM | > 100 µM |
| COc1ccc2c(c1)/C(=C\c1c[nH]c3ccc(OC)cc13)C(=O)N2 | 3.65 µM | 13.6 µM | 4.56 µM | 16.7 µM | 2.65 µM | 13.1 µM | 2.91 µM | 9.6 µM | 3.07 µM | 12.6 µM | 2.97 µM | 12.9 µM | 3.02 µM | 12.5 µM |  |  |
| O=C(NN1C(=O)CSC1c1ccc(F)cc1)C(O)c1ccccc1 (stereo not given) | 79.5 µM | > 100 µM | > 100 µM | > 100 µM | > 100 µM | > 100 µM | > 100 µM | > 100 µM | > 100 µM | > 100 µM | > 100 µM | > 100 µM | > 100 µM | > 100 µM | 90.9 µM | > 100 µM |
| CC(=O)O.CC(=O)O.CC(=O)O.CC(=O)O.[Rh].[Rh] | 26.1 µM | > 100 µM | 32.3 µM | 93.8 µM | 27.2 µM | > 100 µM | 10.5 µM | 78.3 µM | 40.3 µM | > 100 µM | 28.5 µM | 83.9 µM | 18.6 µM | 37 µM | 28.6 µM | > 100 µM |
| O=c1c(O)cccn1CCCN(CCCn1cccc(O)c1=O)CCn1cccc(O)c1=O | 3.39 µM | > 100 µM | 2.31 µM | > 100 µM | 3.89 µM | > 100 µM | 1.86 µM | 9.83 µM | 3.41 µM | > 100 µM | 10.3 µM | > 100 µM | 2.67 µM | > 100 µM | 4.03 µM | 75.2 µM |
| NS(=O)(=O)c1cccc(-c2ccc3c(NC(=O)C4CC4)n[nH]c3c2)c1 | 6.71 µM | > 17.6 µM | 15.7 µM | > 25 µM | > 13.3 µM | > 24.1 µM | > 15 µM | > 25 µM | > 21.1 µM | > 25 µM | > 25 µM | > 25 µM | > 14.7 µM | > 25 µM | > 25 µM | > 25 µM |
| N/C(=N\c1nc2ccccc2s1)NC(=NC1CCCCC1)NC1CCCCC1 | 1.68 µM | 3.17 µM | 1.75 µM | 3.24 µM | 1.46 µM | 2.83 µM | 1.46 µM | 2.86 µM | 1.61 µM | 3.11 µM | 1.47 µM | 2.93 µM | 1.8 µM | 3.21 µM |  |  |
| O=C(Nc1ccccc1Cl)c1cccc(NC2=C(Cl)C(=O)N(Cc3ccccc3)C2=O)c1 | 12.5 µM | 33.3 µM | 18.6 µM | > 100 µM | 11.6 µM | 33.4 µM | 52.5 µM | > 100 µM |  |  | 14.1 µM | > 100 µM | 14.1 µM | 51.4 µM | 49.3 µM | > 100 µM |
| COc1ccc2c(c1)C(=O)c1c-2n(CCCN)c(=O)c2cc([N+](=O)[O-])ccc12 | 2.79 µM | 15.9 µM |  |  | < 0.01 µM | < 0.01 µM | < 0.01 µM | < 0.01 µM | < 0.01 µM | < 0.01 µM | 1.77 µM | > 100 µM |  |  |  |  |
| C[C@H]1c2ccccc2CN1CCCOc1cc2c(cc1OCC1CC1)C1(CCCC1)C(N)=N2 | 1.91 µM | 6.86 µM |  |  | 1.18 µM | 3.46 µM | 1.08 µM | 3.82 µM | 2.59 µM | 9.18 µM | 1.46 µM | 5.1 µM | 0.912 µM | 1.69 µM | 1.94 µM | 7.61 µM |
| Cc1oc2c(c1C(=O)N1CC[C@@H](N)C1)C(=O)c1c(c(O)c3ccccc3c1O)C2=O | 2.68 µM | 9.5 µM | 7.47 µM | 20.9 µM | 1.01 µM | 4.9 µM | 2.53 µM | 11.3 µM | 1.3 µM | 11 µM | 1.49 µM | 11.9 µM | 3.97 µM | 16.5 µM |  |  |
| COc1ccc(-c2ccc(/C=N/n3c(COc4ccccc4Cl)n[nH]c3=S)o2)c([N+](=O)[O-])c1 | 17.7 µM | 46.7 µM | 55 µM | > 100 µM | 18.7 µM | 40.5 µM | 15.5 µM | 52.1 µM | 26.4 µM | 82.4 µM | 26.5 µM | 89.2 µM |  |  | 30.4 µM | 87.9 µM |
